{
  "source": "patent EP0873137B1",
  "about": "“COMPOSITIONS INCLUDING CALCIUM INFLUX BLOCKERS FOR INHIBITING CELL GROWTH” (The Wellesley Hospital Foundation, priority 1996, dated 1997)",
  "key": {"[1]": {"test_system": "Bone marrow derived mast cells (BMMC)", "experiment": "Cell death assay (Trypan blue exclusion) in BMMC", "type": "cell-based", "conditions": "24 hours", "method": "Cytotoxicity assays were performed as described in Materials and Methods. In Figures 1A to 1C, BMMCs were incubated with either SLF (500ng/ml in all cases) (circles) or IL-3 (25% WEHI-3 conditioned medium in all cases) (squares) with the indicated amounts of ketotifen (Figure 1A), econazole (Figure 1B) or Ni^2+ (Figure 1C). In Figure 1D, BMMCs were incubated with IL-3, and the indicated amounts of SLF. Plotted circles also included 2.5mM Ni^2+ and plotted squares included no Ni^2+. In Figure 1E, BMMCs were coated with IgE anti-DNP monoclonal SPE-7, then incubated with IL-3 plus the indicated amounts of DNP-HSA (Ag), with 5µM econazole (circles) or without econazole (squares). In Figure 1F, BMMCs were incubated with IL-3 plus the indicated amounts of Substance P, with 5µM econazole (circles) or without econazole (squares). In all cases, the proportion of dead cells was determined after 24 hours in culture by counting cells that could or could not exclude Trypan blue. Error bars represent the standard error determined from triplicate measurements.\n(§1) Cells. Bone marrow derived mast cells (BMMC) were generated as described previously (Berger et al., 1994). They were cultured in OPTI-MEM (Gibco, Burlington, ON) supplemented with 10% heat-inactivated FBS and 2% WEHI-3 supernatant as a source of IL-3. 32D-kit cells (gift from Dr. Mark Minden, Ontario Cancer Institute) are an IL-3-dependent myelomonocytic cell line expressing c-kit (Hu et al., 1995). 32D-kit cells were grown in RPMI (Gibco) supplemented with 10% heat-inactivated FBS, 2% WEHI-3 supematant, and 1 mg/ml G418 (Gibco). The p815 cell line is a murine mastocytoma cell line. P815 cells were grown in RPMI supplemented with 10% heat-inactivated FBS. Bcl-2 gp+e NIH 3T3 packaging cells were grown in Dulbecco's modified Eagle's medium (DMEM - Gibco) and supplemented with 10% FBS and 2 µg/ml puromycin (Sigma, St. Louis, Mo). All cell cultures also contained 55µM β-mercaptoethanol and antibiotics (both Sigma). SK-BR3, MDA-MB231 and MCF-7 cells were obtained from ATCC. SK-BR3 and MDA-MB231 cells were cultured in RPMI medium supplemented with 10% heat inactivated fetal bovine serum. MCF-7 cells were cultured in DMEM medium supplemented with 10% heat inactivated fetal bovine serum and 10 µg/ml human insulin (Sigma).\n(§2) Cell death assays. 2.5 X 10^4 BMMCs, 32D-kit or P815 cells were placed in 96-well flat bottom plates in a volume of 0.1 ml RPMI containing 0.5% FBS. Cells were supplemented with either SLF, Substance P or IL3 plus Ca^2+ channel blocker. In the case of adding IgE, cells were incubated with 10 µg/ml SPE-7 for 45 minutes at 4°C followed by 3 washes with RPMI, 0.5% FBS before plating in 96 well plates and adding 100 ng/ml DNP-HSA. The proportion of dead cells was determined after 18 or 24 hours in culture by counting cells that could or could not exclude Trypan blue."}, "32D-kit cells": {"test_system": "32D-kit cells", "experiment": "Cell death assay (Trypan blue exclusion) in 32D-kit cells", "type": "cell-based", "method": "Figures 2A and 2B show induction of cell death in 32D-kit or p815 cells with SLF plus Ca^2+ influx blockers. 32D-kit (Figure 2A) or p815 (Figure 2B) cells were incubated with either SLF (solid bars) or IL-3 (striped bars) plus the indicated concentration of Ca^2+ influx blocker. Cell death was determined by Trypan Blue exclusion after 18 hours in culture.\n32D-kit cells were incubated for 18 hours with SLF and 5µM econazole and oleic acid (solid bars), or with SLF and 5µM econazole and elaidic acid (hatched bars), or IL-3 and 5 µM econazole and oleic acid (stippled bars). The proportion of dead cells was determined by Trypan Blue exclusion.\n(§3) Figures 6A and 6B show the effect of ionomycin on apoptosis induced by SLF and Ca^2+ influx blacker. In Figure 6A, 32D-kit cells were incubated for 18 hours with 5µM econazole and the indicated amounts of ionomycin in the presence of either SLF (circles) or IL-3 (squares). In Figure 6B, 32D-kit-Bcl-2 cells were incubated for 18 hours with 5µM econazole and the indicated amounts of ionomycin in the presence of either SLF (circles) or IL-3 (squares). The proportion of dead cells was determined by Trypan Blue exclusion.\n(§4) In additional cultures, IL-3 alone or no factor was added and cell viability was similarly tested. The effect on cell viability of adding 25 or 250 µM YVAD-CHO was also evaluated in separate cultures in which no additional factors were added.\n32D-kit cells were incubated with either SLF in the absence of YVAD-CHO (circles), or with SLF in the presence of 25 µM YVAD-CHO. (triangles), or IL-3 (squares) with the indicated amounts of econazole. The proportion of dead cells was evaluated by Trypan Blue exclusion after 18 hours in culture\nas §1, §2"}, "32D-kit-Bcl-2 cells": {"test_system": "32D-kit-Bcl-2 cells", "experiment": "Cell death assay (Trypan blue exclusion) in Bcl-2 over-expressing 32D-kit cells", "type": "cell-based", "conditions": "5µM econazole, 18 hours, Figure 6B", "method": "as §3, §4\nGeneration of Bcl-2 over-expressing 32D-kit cells. gp + e bcl-2 retroviral producer cells were a gift from Dr. Y. Ben-David (Toronto) and contain an LXSN-based retroviral vector expressing genes for both puromycin resistance and murine bcl-2. For infection, a confluent layer of gp + e packaging cells were co-cultured with 32D-kit cells for 24 hours. Non-adherent 32D-kit cells were then removed, cultured for 48 hours and then selected for bcl-2 over-expressing cells in the presence of 2µg/ml puromycin.\nas §2"}, "MDA-MB-231 cells": {"test_system": "MDA-MB-231 cells", "experiment": "Cell death in autocrine stimulated MDA-MB-231 breast cancer cells", "type": "cell-based, human", "conditions": "20µM econazole; YVAD-CHO 10 or 100 µM, ionomycin 0.1 nM to 1 µM, oleic acid 10 or 100 µM", "method": "Bar 1: control; Bar 2: 20µM econazole; Bar 3: 20µM econazole and 10µM YVAD-CHO (ICE inhibitor); Bar 4: 20µM econazole and 100 µM YVAD-CHO; Bar 5: 20µM econazole and 0.1 nM ionomycin (calcium ionophore); Bar 6: 20µM econazole and 10 nM ionomycin; Bar 7: 20µM econazole and 1 µM ionomycin; Bar 8: 20µM econazole and 10 µM oleic acid (PLC activation inhibitor); and Bar 9: 20µM econazole and 100 µM oleic acid.\nas §1\nThe MDA-MB-231 cell line is a highly anaplastic carcinoma of the breast. it too is tumorigenic in nude mice but expresses only low levels of erbB2. However it is FGF^R positive and is stimulated in an autocrine fashion by bFGF (el Yazidi et al., 1995). Experiments were carried out to determine the susceptibility of MDA-MB-231 cells to a Ca^2+ influx blocker and the influence of oleic acid, ionomycin, and YVAD-CHO on induction of cell death by the blocker. The results are summarized together in Figure 9B."}, "32D-kit leukemia cells": {"test_system": "32D-kit leukemia cells", "experiment": "32D-kit leukemia in mice, SLF intravenously: G418-resistant spleen colonies in agar", "type": "in vivo", "method": "Mice were inoculated intravenously with 1 X 10^7 G418-resistant 32D-kit cells. Between 3 and 5 weeks following the inoculation (Experiments 1 & 3; 5 weeks, experiment 2; 3 weeks), mice were given 100mg/kg ketotifen by oral gavage. Four hours following the ketotifen treatment, mice were injected with 15µg SLF intravenously. Two hours later the mice were given a further 100mg/kg ketotifen p.o. The following day, spleens were removed and assayed for the presence of leukemic cells by plating cells in 0.3% agar in growth medium containing 20% WEHI-3 conditioned medium and 1 mg/ml G418 to limit detection to the G418-resistant leukemic cells. Seven days later, colonies were enumerated.\n(§5) Mice. For the in vivo 32D-kit experiments, mice were male C3H/ he mice 6 to 8 weeks old and obtained from Charles River Laboratories, Boston, Massachusetts. Mice were inoculated intravenously with 1 x 10^7 leukemic cells. Between 3 and 5 weeks following the inoculation, mice were given 100 mg/kg ketotifen (Sigma) in a volume of 0.4 ml water by oral gavage, Following the first ketotifen treatment, mice were injected intravenously or subcutaneously with 15 µg SLF in PBS. A second ketotifen treatment followed administration of SLF.\n(§6) In order to determine the efficacy of the combination of a Ca^2+ influx blocker with an activating signal in vivo, mice inoculated with factor-dependent and G418-resistant 32D-kit leukemia cells were treated with a combination of ketotifen and SLF. In one set of experiments, spleen cells were removed and assayed for the presence of leukemic cells by plating cells in agar in growth medium containing 20% WEHI-3 conditioned medium and 1mg/ml G418 to limit detection to the G418-resistant leukemic cells. […] The number of G418-resistant colonies detected in animals that were injected with SLF only tended to be higher than those not receiving the factor, varying between 65 and 31,000 with an arithmetic average of 7,399, and a geometric mean of 1,545 colonies/spleen. […]"}, "[2]": {"test_system": "all cells capable of forming colonies in agar in response to IL-3", "experiment": "32D-kit leukemia in mice, SLF intravenously: all IL-3-dependent spleen colonies in agar", "type": "in vivo", "conditions": "ketotifen 100mg/kg p.o. twice, SLF 15µg intravenously; leukemic as well as normal cells", "method": "Figure 11B is similar to Figure 11A, but in this case spleen cells were assayed for the presence of all cells capable of forming colonies in agar in response to IL-3, to include leukemic as well as normal cells.\nas §5\nas §6, with “SLF.” for “SLF. In one set of experiments, spleen cells were removed and assayed for the presence of leukemic cells by plating cells in agar in growth medium containing 20% WEHI-3 conditioned medium and 1mg/ml G418 to limit detection to the G418-resistant leukemic cells.”"}, "[3]": {"conditions": "co-incubated with SLF (500ng/ml), Figures 1A-C"}, "[4]": {"conditions": "stimulated with IgE plus antigen (DNP-HSA), with IL-3, 5µM econazole in Figure 1E"}, "[5]": {"conditions": "SLF and 5µM econazole, 18 hours"}, "[6]": {"conditions": "ketotifen 100mg/kg p.o. twice, SLF 15µg intravenously, spleens next day"}},
  "data": [
    {"molecule": "[Ni+2]", "note": "[Ni^2+]", "values": [
      {"measurement": "cell death", "setting": "[1]; [3]", "value": "converted to a death signal"},
      {"measurement": "cell death", "setting": "[1]; [4]", "value": "combine with IgE receptor cross-linking to induce cell death"}
    ]},
    {"molecule": "C[C@H](CCC(=O)O)C[C@H](C)C[C@H](C)C(=O)/C=C(\\O)[C@H](C)C[C@H](C)C/C=C/[C@@H](C)[C@@H](O)[C@@H](C)[C@@H](O)C[C@@H]1CC[C@@](C)([C@H]2CC[C@@](C)([C@@H](C)O)O2)O1", "note": "[ionomycin]", "values": [
      {"measurement": "cell death at higher concentrations of ionomycin", "setting": "32D-kit cells; [5]", "value": "restoration of cell death"},
      {"measurement": "rescue/protection from cell death induced by SLF and Ca^2+ influx blocker", "setting": "32D-kit cells; [5]", "value": "protects"},
      {"measurement": "concentration of maximal protection", "setting": "32D-kit cells; SLF and 5µM econazole, 18 hours, Figure 6A", "value": 10, "unit": "nM"},
      {"measurement": "cell death at higher levels of ionomycin", "setting": "32D-kit-Bcl-2 cells", "value": "did not demonstrate significant cell death"},
      {"measurement": "protection from apoptosis by SLF plus blocker", "setting": "32D-kit-Bcl-2 cells; low levels of ionomycin", "value": "similarly protected from apoptosis"},
      {"measurement": "protection from death induced by the Ca^2+ influx blocker", "setting": "MDA-MB-231 cells", "value": "can protect"}
    ]},
    {"molecule": "CCCCCCCC/C=C/CCCCCCCC(=O)O", "note": "[elaidic acid, trans-9-octadecenoic acid]", "values": [
      {"measurement": "rescue/protection from cell death induced by SLF and Ca^2+ influx blocker", "setting": "32D-kit cells; [5]", "value": "not"}
    ]},
    {"molecule": "YVAD-CHO", "values": [
      {"measurement": "resistance to apoptosis induced by SLF plus econazole", "setting": "32D-kit cells; 25 µM YVAD-CHO, 18 hours, Figure 8", "value": "provides resistance"},
      {"measurement": "protection from apoptosis induced by factor withdrawal", "setting": "32D-kit cells; 25 or 250 µM YVAD-CHO, Figure 7B", "value": "fails to protect"},
      {"measurement": "protection from apoptosis induced by the topoisomerase inhibitor etoposide", "setting": "32D-kit cells; not shown", "value": "protects"},
      {"measurement": "protection from death induced by the Ca^2+ influx blocker", "setting": "MDA-MB-231 cells", "value": "can protect"}
    ]},
    {"molecule": "COc1ccc(CCN(C)CCCC(C#N)(c2ccc(OC)c(OC)c2)C(C)C)cc1OC", "note": "(stereo not drawn) [verapamil]", "values": [
      {"measurement": "inducing cell death", "setting": "32D-kit cells; combined with SLF, not shown, cell type not stated", "value": "ineffective in inducing cell death"}
    ]},
    {"molecule": "CN1CCC(=C2c3ccccc3CC(=O)c3sccc32)CC1", "note": "[ketotifen]", "values": [
      {"measurement": "cell death", "setting": "[1]; [3]", "value": "converted to a death signal"},
      {"measurement": "cell death", "setting": "[1]; [4]", "value": "combine with IgE receptor cross-linking to induce cell death"},
      {"measurement": "activity on the leukemic cells in vivo", "setting": "32D-kit leukemia cells; SLF intravenously", "value": "little activity"},
      {"measurement": "G418-resistant colonies, arithmetic average", "setting": "32D-kit leukemia cells; [6]", "value": "5,502 colonies/spleen"},
      {"measurement": "G418-resistant colonies, geometric mean", "setting": "32D-kit leukemia cells; [6]", "value": 849, "unit": "colonies/spleen"},
      {"measurement": "IL-3-dependent colonies, arithmetic average", "setting": "[2]", "value": "7,715 colonies/spleen"},
      {"measurement": "IL-3-dependent colonies, geometric mean", "setting": "[2]", "value": "2,320 colonies/spleen"}
    ]},
    {"molecule": "CCCCCCCC/C=C\\CCCCCCCC(=O)O", "note": "[oleic acid, cis-9-octadecenoic acid]", "values": [
      {"measurement": "range of effectiveness (rescue from cell death)", "setting": "32D-kit cells; [5]", "value": "1 to 100", "unit": "µM"},
      {"measurement": "rescue/protection from cell death induced by SLF and Ca^2+ influx blocker", "setting": "32D-kit cells; [5]", "value": "rescued from cell death"},
      {"measurement": "protection from death induced by the Ca^2+ influx blocker", "setting": "MDA-MB-231 cells", "value": "can protect"}
    ]}
  ]
}
